Experimental data from patent US20070078124A1, “1-Aza-2-oxa-dibenzo(e,h)azulenes and their use for the treatment of central nervous system diseases and disorders” (PLIVA-ISTRAZIVACKI INSTITUT D.O.O., priority 2003, published 2007).

Key:
5-HT2A receptor = biological target: T1, 5-HT2A receptor (Homo sapiens, UniProt P28223); assay: radioligand ([3H]-ketanserin) competitive binding assay for 5-HT2A receptor; settings: for IC50: human cortex or recombinant 5-HT2A receptor expressed in CHO-K1, read-out: binding affinity to 5-HT2A serotonin receptor expressed as IC50 value; for Ki: human cortex or recombinant 5-HT2A receptor expressed in CHO-K1, read-out: binding affinity to 5-HT2A serotonin receptor, Ki value
T1 construct: expressed in transfected cells; host or cells: CHO-K1 (or COS-7)
T1 sequence (P28223 whole entry): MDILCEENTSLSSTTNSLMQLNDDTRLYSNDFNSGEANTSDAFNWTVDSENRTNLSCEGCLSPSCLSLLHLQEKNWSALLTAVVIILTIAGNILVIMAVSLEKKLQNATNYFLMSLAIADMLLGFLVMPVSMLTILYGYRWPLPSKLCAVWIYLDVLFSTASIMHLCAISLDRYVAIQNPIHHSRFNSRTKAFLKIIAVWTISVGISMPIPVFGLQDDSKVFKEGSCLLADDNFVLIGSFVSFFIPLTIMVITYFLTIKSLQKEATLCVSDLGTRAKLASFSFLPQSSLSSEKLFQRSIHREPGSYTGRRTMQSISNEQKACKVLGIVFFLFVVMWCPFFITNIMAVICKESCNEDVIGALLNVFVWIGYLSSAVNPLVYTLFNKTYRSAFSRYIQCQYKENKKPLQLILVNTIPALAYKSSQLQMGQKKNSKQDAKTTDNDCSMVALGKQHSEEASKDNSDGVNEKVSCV
Description: (§1) The effect of the compounds of the present invention on the neurochemical steady state was determined by in vitro investigations such as a radionuclide-marked radioligand binding assay for 5-HT2A (Bonhaus D. W. Br. J. Pharmacol. 1995, 115:622; Saucier C. J. Neurochem. 1997, 68:1998) and 5-HT2C receptors (Wolf W. A. J. Neurochem. 1997, 69:1449), in vitro binding assay for σ1 receptor (Thomson W. and Donn R. Arthritis Res. 2002, 4: 302-306) and by in vivo investigations in a tail suspension test (Vogel H. G. and Vogel W. H. Drug Discovery and Evaluation Pharmacological Assays, Springer 1997, 304), in amphethamine-induced hyperlocomotion in mice (Millan M. J. et al, 1998 J. Pharmacol. Exp. Ther. 287: 167-186), in a forced swim test in mice (Porsolt R. D. et al. Arch. Int. Pharmacodyn. 1977, 229:327-336), in meta-chlorophenyl piperazine (m-CPP) test on rats (Drug Dev. Res. 1989, 18:119-144), and in apomorphine, tryptamine, norepinephrine (ATN) test in rats (Arch. Int. Pharmacodyn. 1977, 227:238-253).
(§2) In Vitro Method for Determining Affinity for Binding to 5-HT2A and 5-HT2C Receptors
(§3) A small concentration of a radioligand having a great affinity for binding to a receptor was incubated with a tissue sample enriched with a certain receptor (1-5 mg of tissue) in a buffered medium (0.2-5 mL). Recombinant human HT2A and HT2C receptors were expressed in CHO-K1 or COS-7 cells and were also used for competitive binding. During incubation the radioligand bound to the receptor. When a binding balance was achieved, the receptors to which the radioligand was bound were separated from those to which said ligand was not bound, and the radioactivity of the receptor/radioligand complex was measured. The interaction of the tested compounds with receptors was tested in competitive binding experiments. Various concentrations of tested compounds were added to the incubation mixture containing a prepared tissue enriched with corresponding receptors and the radioligand. The radioligand binding was inhibited by the test compounds proportionally to the affinity of a certain compound for the receptor and to the concentration of the compound.
The radioligand used for the determination of binding to 5-HT2A receptor was [^3H]-ketanserin and the tissue used was human cortex or recombinant 5-HT2A receptor expressed in CHO-K1.

5-HT2C receptor = biological target: T2, 5-HT2C receptor (Homo sapiens, UniProt P28335); assay: radioligand ([3H]mesulergine) competitive binding assay for 5-HT2C receptor; settings: choroid plexus or recombinant 5-HT2C receptor expressed in CHO-K1 cells; for IC50: read-out: binding affinity to 5-HT2C serotonin receptor expressed as IC50 value; for Ki: read-out: binding affinity to 5-HT2C serotonin receptor, Ki value
T2 construct: expressed in transfected cells; host or cells: CHO-K1 (or COS-7)
T2 sequence (P28335 33-458): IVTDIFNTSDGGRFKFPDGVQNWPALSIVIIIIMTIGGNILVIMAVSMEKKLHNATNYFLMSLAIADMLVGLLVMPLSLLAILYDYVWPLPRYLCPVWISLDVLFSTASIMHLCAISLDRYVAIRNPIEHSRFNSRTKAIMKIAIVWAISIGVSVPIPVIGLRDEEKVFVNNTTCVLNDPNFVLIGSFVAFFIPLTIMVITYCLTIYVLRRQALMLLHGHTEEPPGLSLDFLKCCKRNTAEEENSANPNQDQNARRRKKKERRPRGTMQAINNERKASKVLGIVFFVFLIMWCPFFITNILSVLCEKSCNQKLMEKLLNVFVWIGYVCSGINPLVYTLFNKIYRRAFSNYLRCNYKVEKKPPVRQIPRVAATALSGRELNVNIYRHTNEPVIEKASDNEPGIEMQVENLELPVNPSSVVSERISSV
Description: as §1, §2, §3
The radioligand used for the determination of binding to 5-HT2C receptor was [^3H]mesulergine and the tissue used was choroid plexus or recombinant 5-HT2C receptor expressed in CHO-K1 cells.

| IC50 (5-HT2A receptor) [µM] | Ki (5-HT2A receptor) [µM] | IC50 (5-HT2C receptor) [µM] | Ki (5-HT2C receptor) [µM] | Compound |
| --- | --- | --- | --- | --- |
| < 0.2 | < 0.1 | < 0.2 | < 0.1 | Cc1onc2c1-c1ccccc1Sc1ccccc1-2 [Compound 1, 3-Methyl-2-oxa-8-thia-1-aza-dibenzo[e,h]azulene] |
| < 0.2 | < 0.1 | < 0.2 | < 0.1 | CN(C)CCCOCc1onc2c1-c1ccccc1Sc1ccccc1-2 [Compound 7, Dimethyl-[3-(2-oxa-8-thia-1-aza-dibenzo[e,h]azulen-3-ylmethoxy)-propyl]-amine] |
